According to US20170065667A1, “METHODS FOR SYNCHRONIZATION OF ESTROUS CYCLES AND OVULATION FOR FIXED TIME ARTIFICIAL INSEMINATION IN CATTLE” (Parnell Technologies Pty Ltd., priority 2014, published 2017):
Where “and” joins values, the source holds several entries; their conditions need not be identical. Equal entries are not always repeated.

Tested on: lactating Holstein cows
Assay: Experiment 1: pregnancies per AI (P/AI) after one vs. two cloprostenol sodium injections in Double-Ovsynch, FTAI
Assay type: in vivo, cattle
Conditions: for P/AI: quartiles 2, 3 and 4 combined
Description: An experiment was conducted to determine the effectiveness of the exogenous administration of hormones for synchronizing the estrous cycles of lactating dairy cattle and resulting pregnancy rates subsequent to FTAI. A total of 373 lactating Holstein cows (172 primiparous, 201 multiparous) were synchronized with a Double-Ovsynch program comprising a first or presynchronization Ovsynch phase followed by a second Ovsynch phase. All animals were synchronized using a GnRH composition (about 100 mcg of gonadorelin acetate per mL, GONAbreed®, Parnell Technologies Pty Ltd, Alexandria, Australia) and a PGF2α analog composition (about 250 mcg of cloprostenol sodium per mL, estroPLAN®, Parnell Technologies Pty Ltd, Alexandria, Australia). The first Ovsynch phase began at about 51 to about 57 days in milk where the cows received a first 1 mL intramuscular injection of a gonadorelin acetate composition. At about 58 to about 64 days in milk, the cows received a first 2 mL intramuscular injection of a cloprostenol sodium composition. At about 61 to about 67 days in milk, the cows received a second 1 mL intramuscular injection of a gonadorelin acetate composition concluding the first Ovsynch phase. The animals were then synchronized with a second Ovsynch phase comprising an Ovsynch-56 protocol beginning at about 68 to about 74 days in milk where the cows received a third 1 mL intramuscular injection of gonadorelin acetate composition. At about 75 to about 81 days in milk, the animals received a second 2 mL intramuscular injection of a cloprostenol sodium composition. At about 77 to about 83 days in milk (about 56 hours after the second injection of a cloprostenol sodium composition), the animals received a fourth 1 mL intramuscular injection of a gonadorelin acetate composition. And at about 78 to about 84 days in milk (about 16 hours after the fourth injection of the gonadorelin acetate composition), the animals receive AI, concluding the second Ovsynch phase. […] The experimental protocol is shown in the diagram of FIG. 2. Statistical analyses were performed with SAS (SAS Institute, 2006). Variables with a binomial distribution, such as P/AI and percentage of animals with CL regression, were analyzed by logistic regression using the LOGISTIC procedure. One-tailed comparisons were utilized throughout the study for comparison of the effect of an additional cloprostenol sodium injection on CL regression and animals pregnant to the FTAI. Continuous variables were analyzed using ANOVA with logistic regression utilized to compare the relationship between circulating P4 and the binomial traits. Animals with ≦2.0 ng/mL P4 on day of PGF were removed from the analysis (n=29; 13 primiparous, 16 multiparous) due to lack of synchronization to the double Ovsynch protocol. Therefore, all analyses were done with a total of 344 lactating dairy cows (n=159 primiparous; n=185 multiparous). Statistical differences were considered significant for P≦0.05 and as a tendency for P≦0.15.

With `O=C(O)CCC/C=C\CC1C(O)CC(O)C1/C=C/C(O)COc1cccc(Cl)c1` (stereo not shown) [cloprostenol sodium] the “Effect of PGF, relative difference in P/AI (two minus one, divided by one)” value (multiparous) was 18.9% (P = 0.15), the “Pregnant/AI, % (n/n)” value (one injection, Quartile 1, [P4] 2.0-4.8 at first injection) was 31.0% and 31.0 (13/42) % and the “Pregnant/AI, % (n/n)” value (one injection, Quartile 2, [P4] 4.9-6.7) was 40.0% and 40.0 (18/45) %. The “Pregnant/AI, % (n/n)” value (one injection, Quartile 3, [P4] 6.8-8.7) was 47.7% and 47.7 (21/44) %, the “Pregnant/AI, % (n/n)” value (one injection, Quartile 4, [P4] 8.8-12) was 44.4% and 44.4 (20/45) % and the “percentage of cows pregnant/AI (P/AI)” value (one injection, multiparous) was 37.5% (36/96). The “percentage of cows pregnant/AI (P/AI)” value (one injection, overall) was 40.1% (72/176), the “percentage of cows pregnant/AI (P/AI)” value (one injection, primiparous) was 45.0% (36/80) and the P/AI (one injection) was 44.0%. For the same molecule, the “Effect of PGF, relative difference in P/AI (two minus one, divided by one)” value (overall) was 15.2% (P = 0.13), the “Effect of PGF, relative difference in P/AI (two minus one, divided by one)” value (primiparous) was 7.11% (P = 0.35) and the “Pregnant/AI, % (n/n)” value (two injections, Quartile 1, [P4] 2.0-5.4 at first injection) was 31.7% and 31.7 (13/41) %. For the same molecule, the “Pregnant/AI, % (n/n)” value (two injections, Quartile 2, [P4] 5.5-7.0) was 46.7% and 46.7 (21/45) %, the “Pregnant/AI, % (n/n)” value (two injections, Quartile 3, [P4] 7.1-8.6) was 55.8% and 55.8 (24/43) % and the “Pregnant/AI, % (n/n)” value (two injections, Quartile 4, [P4] 8.7-12) was 56.4% and 56.4 (22/39) %. The “percentage of cows pregnant/AI (P/AI)” value (two injections, multiparous) was 44.6% (41/89), the “percentage of cows pregnant/AI (P/AI)” value (two injections, overall) was 46.2% (80/168) and the “percentage of cows pregnant/AI (P/AI)” value (two injections, primiparous) was 48.2% (39/79). For the same molecule, the P/AI (two injections) was 52.8%.
